Assay results published in patent US12630547B2, “RAS protein degraders, pharmaceutical compositions thereof, and their therapeutic applications” (BioTheryX, Inc., priority 2019, dated 2026).

Columns and labels:
Assay type in all cases: cell-based
H23 cells = assay: Cell viability assay (CELLTITER-GLO), H23 cells; conditions: Table 4; 3 days
In short: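 H23 cells in RPMI 1640 with 10% FBS, 4,000 cells/well, exposed to compound or DMSO for 3 days at 37° C, 5% CO2. Viability read by CellTiter-Glo luminescence after 10 min. IC50 reported in potency bins.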

MOLM-13 cells = assay: Cell viability assay (CELLTITER-GLO), MOLM-13 cells; conditions: Table 2, compound at 10 μM, 3 days; for viability at 10 µM: Homo sapiens, MOLM-13, 72 h, read-out: Effect on MOLM-13 cell viability (% DMSO)
In short: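 MV-4-11 and MOLM-13 cells in RPMI 1640/10% FBS were seeded at 4,000 cells/well and exposed to compound (10 μM or 1 μM) or DMSO for 3 days at 37 °C, 5% CO2. CellTiter-Glo luminescence gave viability as % DMSO, binned into ranges A (<10%) through D (≥50%).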

H358 cells = assay: Cell viability assay (CELLTITER-GLO), H358 cells; conditions: Table 4; 3 days
In short: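 H358 cells (RPMI 1640, 10% FBS), 4,000 per well, exposed to compound for 3 days at 37 °C, 5% CO2; viability by CellTiter-Glo luminescence. Single-dose viability as % DMSO at 10 or 1 μM, binned A (<10%) to D (≥50%); IC50 binned A (≤1 μM) to D (>10 μM).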

C=C(Cl)C(=O)N1CCN(c2ncnc3c(F)c(-c4c(F)cccc4OCCCCCCCN4CCC(c5cc6c(cc5F)C(=O)N(C5CCC(=O)NC5=O)C6)CC4)c(Cl)cc23)CC1 (stereo not drawn) [Compound 107, 3-(5-(1-(7-(2-(6-Chloro-4-(4-(2-chloroacryloyl)piperazin-1-yl)-8-fluoroquinazolin-7-yl)-3-fluorophenoxy)heptyl)piperidin-4-yl)-6-fluoro-1-oxoisoindolin-2-yl)piperidine-2,6-dione]
Inhibition of H23 cells, IC50 (class) (H23 cells): A′ | viability at 10 µM (MOLM-13 cells): < 10% | Inhibition of H358 cells, IC50 (class) (H358 cells): A′

C=C(Cl)C(=O)N1CCN(c2nc(OC[C@@H]3CCCN3C)nc3c(F)c(-c4c(F)cccc4OCCCCCCCN4CCC(c5cc(F)cc6c5CN(C5CCC(=O)NC5=O)C6=O)CC4)c(Cl)cc23)CC1 (stereo partly drawn) [Compound 108, 3-(4-(1-(7-(2-(6-Chloro-4-(4-(2-chloroacryloyl)piperazin-1-yl)-8-fluoro-2-(((S)-1-methylpyrrolidin-2-yl)methoxy)quinazolin-7-yl)-3-fluorophenoxy)heptyl)piperidin-4-yl)-6-fluoro-1-oxoisoindolin-2-yl)piperidine-2,6-dione]
Inhibition of H23 cells, IC50 (class) (H23 cells): A′ | viability at 10 µM (MOLM-13 cells): < 10% | Inhibition of H358 cells, IC50 (class) (H358 cells): A′

CCC(=O)N1CCN(c2ncnc3c(F)c(-c4c(F)cccc4OCCOCc4ccc(COCCN5CCC(c6cc(F)cc7c6CN(C6CCC(=O)NC6=O)C7=O)CC5)cc4)c(Cl)cc23)CC1 (stereo not drawn) [Compound 109, 3-(4-(1-(2-((4-((2-(2-(6-Chloro-8-fluoro-4-(4-propionylpiperazin-1-yl)quinazolin-7-yl)-3-fluorophenoxy)ethoxy)methyl)benzyl)oxy)ethyl)piperidin-4-yl)-6-fluoro-1-oxoisoindolin-2-yl)piperidine-2,6-dione]
Inhibition of H23 cells, IC50 (class) (H23 cells): B′ | viability at 10 µM (MOLM-13 cells): < 10% | Inhibition of H358 cells, IC50 (class) (H358 cells): B′

C=C(Cl)C(=O)N1CCN(c2ncnc3c(F)c(-c4c(F)cccc4OCCC4CCC(CCN5CCC(c6cc(F)cc7c6CN(C6CCC(=O)NC6=O)C7=O)CC5)CC4)c(Cl)cc23)CC1 (stereo not drawn) [Compound 110, 3-(4-(1-(2-(4-(2-(2-(6-Chloro-4-(4-(2-chloroacryloyl)piperazin-1-yl)-8-fluoroquinazolin-7-yl)-3-fluorophenoxy)ethyl)cyclohexyl)ethyl)piperidin-4-yl)-6-fluoro-1-oxoisoindolin-2-yl)piperidine-2,6-dione]
Inhibition of H23 cells, IC50 (class) (H23 cells): A′ | viability at 10 µM (MOLM-13 cells): < 10% | Inhibition of H358 cells, IC50 (class) (H358 cells): B′

C=C(Cl)C(=O)N1CCN(c2ncnc3c(F)c(-c4c(F)cccc4OCCc4ccc(CCN5CCC(c6cc(F)cc7c6CN(C6CCC(=O)NC6=O)C7=O)CC5)cc4)c(Cl)cc23)CC1 (stereo not drawn) [Compound 111, 3-(4-(1-(4-(2-(2-(6-Chloro-4-(4-(2-chloroacryloyl)piperazin-1-yl)-8-fluoroquinazolin-7-yl)-3-fluorophenoxy)ethyl)phenethyl)piperidin-4-yl)-6-fluoro-1-oxoisoindolin-2-yl)piperidine-2,6-dione]
Inhibition of H23 cells, IC50 (class) (H23 cells): A′ | viability at 10 µM (MOLM-13 cells): < 10% | Inhibition of H358 cells, IC50 (class) (H358 cells): B′

C=C(Cl)C(=O)N1CCN(c2ncnc3c(F)c(-c4c(F)cccc4OCCCCCCCN4CCC(c5cc(F)cc6c5CN(C5CCC(=O)NC5=O)C6=O)C4)c(Cl)cc23)CC1 (stereo not drawn) [Compound 112, 3-(4-(1-(7-(2-(6-Chloro-4-(4-(2-chloroacryloyl)piperazin-1-yl)-8-fluoroquinazolin-7-yl)-3-fluorophenoxy)heptyl)pyrrolidin-3-yl)-6-fluoro-1-oxoisoindolin-2-yl)piperidine-2,6-dione]
Inhibition of H23 cells, IC50 (class) (H23 cells): A′ | viability at 10 µM (MOLM-13 cells): < 10% | Inhibition of H358 cells, IC50 (class) (H358 cells): B′

C=C(Cl)C(=O)N1CCN(c2ncnc3c(F)c(-c4c(F)cccc4OCCCCCCCCCN4CCC(c5cc(F)cc6c5CN(C5CCC(=O)NC5=O)C6=O)CC4)c(Cl)cc23)CC1 (stereo not drawn) [Compound 113, 3-(4-(1-(9-(2-(6-Chloro-4-(4-(2-chloroacryloyl)piperazin-1-yl)-8-fluoroquinazolin-7-yl)-3-fluorophenoxy)nonyl)piperidin-4-yl)-6-fluoro-1-oxoisoindolin-2-yl)piperidine-2,6-dione]
Inhibition of H23 cells, IC50 (class) (H23 cells): B′ | viability at 10 µM (MOLM-13 cells): < 10% | Inhibition of H358 cells, IC50 (class) (H358 cells): B′

C=C(Cl)C(=O)N1CCN(c2ncnc3c(F)c(-c4c(F)cccc4OCCCCCCCCCCCN4CCC(c5cc(F)cc6c5CN(C5CCC(=O)NC5=O)C6=O)CC4)c(Cl)cc23)CC1 (stereo not drawn) [Compound 114, 3-(4-(1-(11-(2-(6-Chloro-4-(4-(2-chloroacryloyl)piperazin-1-yl)-8-fluoroquinazolin-7-yl)-3-fluorophenoxy)undecyl)piperidin-4-yl)-6-fluoro-1-oxoisoindolin-2-yl)piperidine-2,6-dione]
Inhibition of H23 cells, IC50 (class) (H23 cells): B′ | viability at 10 µM (MOLM-13 cells): < 10% | Inhibition of H358 cells, IC50 (class) (H358 cells): B′

C=C(Cl)C(=O)N1CCN(c2nc(OCCN(C)C)nc3c(F)c(-c4c(F)cccc4OCCCCCCCN4CCC(c5cc(F)cc6c5CN(C5CCC(=O)NC5=O)C6=O)CC4)c(Cl)cc23)CC1 (stereo not drawn) [Compound 115, 3-(4-(1-(7-(2-(6-Chloro-4-(4-(2-chloroacryloyl)piperazin-1-yl)-2-(2-(dimethylamino)-ethoxy)-8-fluoroquinazolin-7-yl)-3-fluorophenoxy)heptyl)piperidin-4-yl)-6-fluoro-1-oxoisoindolin-2-yl)piperidine-2,6-dione]
Inhibition of H23 cells, IC50 (class) (H23 cells): A′ | viability at 10 µM (MOLM-13 cells): < 10% | Inhibition of H358 cells, IC50 (class) (H358 cells): B′

C=C(Cl)C(=O)N1CCN(c2ncnc3c(F)c(-c4c(F)cccc4OCCC4CCC(CCN5CCC(c6cc(F)cc7c6CN(C6CCC(=O)NC6=O)C7=O)CC5)CC4)c(Cl)cc23)CC1 (stereo not drawn) [Compound 116, 3-(4-(1-(2-(4-(2-(2-(6-Chloro-4-(4-(2-chloroacryloyl)piperazin-1-yl)-8-fluoroquinazolin-7-yl)-3-fluorophenoxy)ethyl)cyclohexyl)ethyl)piperidin-4-yl)-6-fluoro-1-oxoisoindolin-2-yl)piperidine-2,6-dione]
Inhibition of H23 cells, IC50 (class) (H23 cells): A′ | Effect on MOLM-13 cell viability (% DMSO) (MOLM-13 cells): A (“A” represents a % viability value of less than 10%) | Inhibition of H358 cells, IC50 (class) (H358 cells): A′

C=C(Cl)C(=O)N1CCN(c2ncnc3c(F)c(-c4c(F)cccc4OC[C@H]4CC[C@H](CN5CCC(c6cc(F)cc7c6CN(C6CCC(=O)NC6=O)C7=O)CC5)CC4)c(Cl)cc23)CC1 (stereo partly drawn) [Compound 117, 3-(4-(1-(((1r,4r)-4-((2-(6-Chloro-4-(4-(2-chloroacryloyl)piperazin-1-yl)-8-fluoro-quinazolin-7-yl)-3-fluorophenoxy)methyl)cyclohexyl)methyl)piperidin-4-yl)-6-fluoro-1-oxoisoindolin-2-yl)piperidine-2,6-dione]
Inhibition of H23 cells, IC50 (class) (H23 cells): A′ | viability at 10 µM (MOLM-13 cells): < 10% | Inhibition of H358 cells, IC50 (class) (H358 cells): A′

C=C(Cl)C(=O)N1CCN(c2ncnc3c(F)c(-c4c(F)cccc4OCCC4CCC(CN5CCC(c6cc(F)cc7c6CN(C6CCC(=O)NC6=O)C7=O)CC5)CC4)c(Cl)cc23)CC1 (stereo not drawn) [Compound 118, 3-(4-(1-((4-(2-(2-(6-Chloro-4-(4-(2-chloroacryloyl)piperazin-1-yl)-8-fluoroquinazolin-7-yl)-3-fluorophenoxy)ethyl)cyclohexyl)methyl)piperidin-4-yl)-6-fluoro-1-oxoisoindolin-2-yl)piperidine-2,6-dione]
Inhibition of H23 cells, IC50 (class) (H23 cells): A′ | viability at 10 µM (MOLM-13 cells): < 10% | Inhibition of H358 cells, IC50 (class) (H358 cells): A′

C=C(Cl)C(=O)N1CCN(c2ncnc3c(F)c(-c4c(F)cccc4OCCCCCCCN4CCCC(c5cc6c(cc5F)C(=O)N(C5CCC(=O)NC5=O)C6)C4)c(Cl)cc23)CC1 (stereo not drawn) [Compound 119, 3-(5-(1-(7-(2-(6-Chloro-4-(4-(2-chloroacryloyl)piperazin-1-yl)-8-fluoroquinazolin-7-yl)-3-fluorophenoxy)heptyl)piperidin-3-yl)-6-fluoro-1-oxoisoindolin-2-yl)piperidine-2,6-dione]
Inhibition of H23 cells, IC50 (class) (H23 cells): A′ | viability at 10 µM (MOLM-13 cells): < 10% | Inhibition of H358 cells, IC50 (class) (H358 cells): B′

C=C(Cl)C(=O)N1CCN(c2ncnc3c(F)c(-c4c(F)cccc4OCCN4CCC(CCN5CCC(c6cc(F)cc7c6CN(C6CCC(=O)NC6=O)C7=O)CC5)CC4)c(Cl)cc23)CC1 (stereo not drawn) [Compound 120, 3-(4-(1-(2-(1-(2-(2-(6-Chloro-4-(4-(2-chloroacryloyl)piperazin-1-yl)-8-fluoroquinazolin-7-yl)-3-fluorophenoxy)ethyl)piperidin-4-yl)ethyl)piperidin-4-yl)-6-fluoro-1-oxoisoindolin-2-yl)piperidine-2,6-dione]
Inhibition of H23 cells, IC50 (class) (H23 cells): B′ | viability at 10 µM (MOLM-13 cells): < 10% | Inhibition of H358 cells, IC50 (class) (H358 cells): B′

C=C(Cl)C(=O)N1CCN(c2ncnc3c(F)c(-c4c(F)cccc4OCCCN4CCC(c5cc(F)cc6c5CN(C5CCC(=O)NC5=O)C6=O)CC4)c(Cl)cc23)CC1 (stereo not drawn) [Compound 121, 3-(4-(1-(3-(2-(6-Chloro-4-(4-(2-chloroacryloyl)piperazin-1-yl)-8-fluoroquinazolin-7-yl)-3-fluorophenoxy)propyl)piperidin-4-yl)-6-fluoro-1-oxoisoindolin-2-yl)piperidine-2,6-dione]
Inhibition of H23 cells, IC50 (class) (H23 cells): B′ | viability at 10 µM (MOLM-13 cells): < 10% | Inhibition of H358 cells, IC50 (class) (H358 cells): B′
